The values that follow come from patent US20050095240A1, “NaCT as a target for lifespan expansion and weight reduction” (Medical College of Georgia Research, priority 2002, published 2005).

Like-named read-outs stand apart in the source and are kept apart here.

For experiment [1], the target named is human NaCT (Homo sapiens, UniProt Q86YT5). In words: Uptake via human NaCT expressed in HRPE cells. The following applies: for Citrate Uptake, cDNA: human NaCT cDNA-transfected HRPE; for Citrate Uptake, cDNA / Citrate Uptake, cDNA-specific: pH 7.5, indicated salt; for Citrate Uptake, cDNA-specific, %: relative to NaCl. Type of experiment: cell-based.
Experiment [2] deals with T1, rat NaCT (Rattus norvegicus, UniProt Q8CJ44).
T1 sequence (Q8CJ44 1-572): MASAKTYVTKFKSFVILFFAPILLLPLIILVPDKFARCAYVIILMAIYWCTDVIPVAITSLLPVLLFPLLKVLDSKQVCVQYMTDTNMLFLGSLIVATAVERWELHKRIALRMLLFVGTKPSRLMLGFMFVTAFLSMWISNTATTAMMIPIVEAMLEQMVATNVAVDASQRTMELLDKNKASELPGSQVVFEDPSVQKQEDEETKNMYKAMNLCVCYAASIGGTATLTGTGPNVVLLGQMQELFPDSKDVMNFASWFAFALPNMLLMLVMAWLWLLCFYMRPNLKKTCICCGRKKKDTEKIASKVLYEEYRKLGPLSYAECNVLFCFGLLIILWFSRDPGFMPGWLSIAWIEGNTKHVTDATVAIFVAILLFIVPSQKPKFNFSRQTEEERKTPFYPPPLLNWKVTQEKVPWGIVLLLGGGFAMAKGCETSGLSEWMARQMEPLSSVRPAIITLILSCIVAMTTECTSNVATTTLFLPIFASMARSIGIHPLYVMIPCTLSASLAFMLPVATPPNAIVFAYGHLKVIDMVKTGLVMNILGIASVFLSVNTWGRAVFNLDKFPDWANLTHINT
In words: Uptake via rat NaCT expressed in HRPE cells. The conditions noted are these: for Citrate Uptake, cDNA-specific / Citrate Uptake, cDNA / Citrate Uptake, cDNA-specific, %: [14C]citrate 7 μM; for Citrate Uptake, cDNA-specific / Citrate Uptake, cDNA: pH 7.5, indicated salt; for Citrate Uptake, cDNA: rat NaCT cDNA-transfected HRPE; for Citrate Uptake, cDNA-specific, %: relative to NaCl. Type of experiment: cell-based.

Experiment [3] concerns the target drIndy (Drosophila melanogaster, UniProt Q9VVT2). The following applies: for Citrate uptake, drIndy / Fold Increase of citrate uptake (drIndy vs vector): citrate 35 μM, indicated salt; for Citrate uptake, drIndy: drIndy cDNA-transfected HRPE cells.
Experiment [4] addresses T2, ceNaCT (Caenorhabditis elegans, UniProt P32739, I91S/L182M).
T2 sequence (P32739 1-551 I91S/L182M): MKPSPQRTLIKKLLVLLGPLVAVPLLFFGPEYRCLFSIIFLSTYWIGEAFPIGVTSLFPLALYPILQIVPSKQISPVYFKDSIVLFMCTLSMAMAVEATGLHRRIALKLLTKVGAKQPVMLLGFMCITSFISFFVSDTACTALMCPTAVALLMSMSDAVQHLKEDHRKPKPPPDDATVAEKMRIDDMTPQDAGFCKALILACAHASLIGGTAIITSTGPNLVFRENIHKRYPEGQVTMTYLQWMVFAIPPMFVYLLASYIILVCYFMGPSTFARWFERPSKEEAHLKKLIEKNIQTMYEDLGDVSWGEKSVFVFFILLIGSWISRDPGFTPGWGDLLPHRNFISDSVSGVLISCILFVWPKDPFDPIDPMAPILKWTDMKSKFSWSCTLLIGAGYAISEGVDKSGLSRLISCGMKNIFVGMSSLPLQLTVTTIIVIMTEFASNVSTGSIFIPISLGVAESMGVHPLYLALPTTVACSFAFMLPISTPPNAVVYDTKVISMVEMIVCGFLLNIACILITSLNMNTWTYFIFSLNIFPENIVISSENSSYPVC
In words: Uptake via ceNaCT expressed in HRPE cells.

The target in experiment [5] is T3, mouse NaCT (Mus musculus, UniProt Q67BT3).
T3 sequence (Q67BT3 1-572): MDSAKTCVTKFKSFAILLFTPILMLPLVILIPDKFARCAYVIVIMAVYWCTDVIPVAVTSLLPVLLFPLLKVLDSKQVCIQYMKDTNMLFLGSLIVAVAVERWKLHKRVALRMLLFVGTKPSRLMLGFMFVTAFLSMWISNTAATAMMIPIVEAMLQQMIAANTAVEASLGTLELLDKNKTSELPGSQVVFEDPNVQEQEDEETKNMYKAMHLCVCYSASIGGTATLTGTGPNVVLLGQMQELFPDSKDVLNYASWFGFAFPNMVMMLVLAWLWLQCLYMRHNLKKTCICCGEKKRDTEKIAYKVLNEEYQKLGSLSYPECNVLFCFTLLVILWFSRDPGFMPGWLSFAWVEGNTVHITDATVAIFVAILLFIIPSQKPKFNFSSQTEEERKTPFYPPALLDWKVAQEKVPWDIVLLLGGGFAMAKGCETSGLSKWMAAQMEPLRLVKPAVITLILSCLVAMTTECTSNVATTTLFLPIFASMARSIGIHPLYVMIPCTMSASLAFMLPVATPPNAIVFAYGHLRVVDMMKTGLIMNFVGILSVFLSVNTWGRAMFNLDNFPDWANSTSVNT
Description: Transport via mouse NaCT expressed in HRPE cells. Type of experiment: cell-based. The conditions noted are these: substrate analog 2 mM, control = 100.

The mark [6] stands for this setting: [3H]succinate 40 nM, inhibitor 2.5 mM.
Where [7] appears, read: [3H]succinate 40 nM, inhibitor 2.5 mM, NaCl buffer pH 7.5.

human NaCT, sequence (Q86YT5 whole entry): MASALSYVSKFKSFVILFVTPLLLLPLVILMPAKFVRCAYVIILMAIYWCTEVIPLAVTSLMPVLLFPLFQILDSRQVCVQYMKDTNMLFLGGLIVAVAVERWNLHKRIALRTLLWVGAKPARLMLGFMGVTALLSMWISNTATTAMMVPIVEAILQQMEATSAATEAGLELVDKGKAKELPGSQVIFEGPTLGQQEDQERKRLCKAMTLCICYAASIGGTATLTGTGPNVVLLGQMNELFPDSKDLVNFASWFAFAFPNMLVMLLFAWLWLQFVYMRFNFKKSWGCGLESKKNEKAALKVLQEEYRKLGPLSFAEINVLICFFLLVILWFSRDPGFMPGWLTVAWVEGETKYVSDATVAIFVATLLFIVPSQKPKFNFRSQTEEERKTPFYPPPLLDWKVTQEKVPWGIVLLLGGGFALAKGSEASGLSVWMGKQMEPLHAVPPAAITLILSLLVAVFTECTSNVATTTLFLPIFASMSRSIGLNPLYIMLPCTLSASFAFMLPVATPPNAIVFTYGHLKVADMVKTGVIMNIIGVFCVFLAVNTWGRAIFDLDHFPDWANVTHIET
drIndy, sequence (Q9VVT2 19-590): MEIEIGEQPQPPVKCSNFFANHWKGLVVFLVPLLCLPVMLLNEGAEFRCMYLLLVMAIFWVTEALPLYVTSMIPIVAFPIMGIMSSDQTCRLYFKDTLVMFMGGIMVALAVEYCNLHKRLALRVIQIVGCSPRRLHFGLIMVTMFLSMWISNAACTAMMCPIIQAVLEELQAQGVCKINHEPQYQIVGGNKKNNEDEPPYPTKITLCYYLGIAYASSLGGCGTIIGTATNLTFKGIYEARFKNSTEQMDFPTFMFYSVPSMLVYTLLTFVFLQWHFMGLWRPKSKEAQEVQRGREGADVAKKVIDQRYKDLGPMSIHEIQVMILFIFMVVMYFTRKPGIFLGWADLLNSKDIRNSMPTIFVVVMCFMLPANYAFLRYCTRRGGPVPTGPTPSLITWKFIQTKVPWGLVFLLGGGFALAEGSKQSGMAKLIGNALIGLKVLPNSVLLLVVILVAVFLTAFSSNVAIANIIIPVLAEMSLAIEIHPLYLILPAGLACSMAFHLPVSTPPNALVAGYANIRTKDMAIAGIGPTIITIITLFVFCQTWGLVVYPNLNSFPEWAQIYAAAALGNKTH

On to `O=C(O)CC(O)(C(=O)O)C(O)C(=O)O` (centres unmarked) [hydroxycitrate], for which the “Inhibition of citrate uptake via NaCT” value in experiment [1] (0.1 mM hydroxycitrate, human NaCT in HRPE cells) is 30-40%; in experiment [2] (0.1 mM hydroxycitrate, rat NaCT in HRPE cells), 30-40%.
With `CC(O)CC(=O)O` (stereo not drawn) [β-Hydroxybutyrate], the “% Control of cDNA-specific [^3H]succinate uptake” value (shortened to “% Control of cDNA-specific”) in experiment [3] (setting [6]) was found to be 91%. In addition, the “cDNA-specific [^3H] succinate uptake” value in experiment [3] (setting [7]) turned out to be 134.0 ± 9.0 fmol/106 cells per min.
Consider `O=C([O-])[C@H](O)[C@@H](O)[C@H](O)[C@H](O)CO.[Na+]` [Sodium gluconate], for which, in experiment [3], the “Citrate uptake, drIndy” value turned out to be 144.2 ± 1.6 pmol/10^6 cells per min and the “Fold Increase of citrate uptake (drIndy vs vector)” value is listed as 65.6 fold. Further, in experiment [1] ([14C]-citrate 20 μM), the “Citrate Uptake, cDNA” value turned out to be 61.7 ± 4.7 pmol/10^6 cells/min and the “Citrate Uptake, cDNA-specific” value is 60.1 ± 4.7 pmol/10^6 cells/min. For the same molecule, in experiment [1], the “Citrate Uptake, cDNA-specific, %” value worked out at 103%. In experiment [2], the “Citrate Uptake, cDNA-specific” value was 29.1 ± 2.3 pmol/10^6 cells/min; the “Citrate Uptake, cDNA” value worked out at 29.6 ± 2.3 pmol/10^6 cells/min; the “Citrate Uptake, cDNA-specific, %” value worked out at 77%.
Turning to `O=C(O)CC(=O)O` [Malonate, malonate], the “Competition with [^14C]citrate for ceNaCT-mediated uptake” value in experiment [4] is “failed to inhibit the uptake of citrate”. Further, the “% Control of cDNA-specific” value in experiment [3] amounted to 71%. Besides, in experiment [3] (pH 7.5), the “cDNA-specific [^3H] succinate uptake” value is given as 98.8 ± 7.1 fmol/106 cells per min. In experiment [1], the “[^14C]-Citrate Uptake (cDNA-specific)” value turned out to be 57.3 ± 3.2 pmol/10^6 cells/min and the “[^14C]-Citrate Uptake, %” value was determined as 120%.
With `COC(=O)CCC(=O)OC` [Dimethylsuccinate], in experiment [3] (setting [6]), the “% Control of cDNA-specific” value stood at 13%. Also, the “cDNA-specific [^3H] succinate uptake” value in experiment [3] (setting [7]) turned out to be 14.1 ± 0.8 fmol/106 cells per min.
With `[Cl-].[Li+]` [LiCl], in experiment [3], the “Citrate uptake, drIndy” value is listed as 52.1 ± 2.2 pmol/10^6 cells per min and the “Fold Increase of citrate uptake (drIndy vs vector)” value is reported as 27.4 fold. Further, in experiment [1] ([14C]-citrate 20 μM), the “Citrate Uptake, cDNA” value was determined as 2.0 ± 0.1 pmol/10^6 cells/min and the “Citrate Uptake, cDNA-specific” value is recorded as 0.7 ± 0.1 pmol/10^6 cells/min. In experiment [1], the “Citrate Uptake, cDNA-specific, %” value worked out at 1%. In experiment [2], the “Citrate Uptake, cDNA-specific” value was determined as 1.1 ± 0.1 pmol/10^6 cells/min; the “Citrate Uptake, cDNA” value was determined as 1.6 ± 0.1 pmol/10^6 cells/min; the “Citrate Uptake, cDNA-specific, %” value is listed as 3%.
With `CC(=O)C(=O)O` [Pyruvate, pyruvate], in experiment [3] (setting [6]), the “% Control of cDNA-specific” value is reported as 21%. Besides, the “[^3H]-Succinate transport, %” value in experiment [5] ([3H]-succinate 0.1 μM) is 104%. In experiment [5] ([14C]-citrate 10 μM), the “[^14C]-Citrate transport, %” value amounted to 84%. Besides, the “[^14C]-Citrate Uptake, %” value in experiment [1] ([14C]-citrate 20 μM, unlabeled compound 2.5 mM, none = 100) worked out at 108%. For the same molecule, in experiment [2] ([14C]citrate 14 μM, unlabeled compound 2.5 mM, none = 100), the “[^14C]Citrate uptake, %” value was determined as 83%.
